Test system: SKH-1 mouse skin
Experiment: NanoString nCounter gene expression analysis (Mouse Inflammation V2 panel) of SKH-1 mouse skin
Format: in vivo
Procedure: UVB exposure was performed on AP-1 luciferase reporter mice on the SKH-1 genetic background at a dose of 2.75 kJ/m2 using FS40 bulbs (Q-Lab Corporation) as described before with the modification that mice were imaged 24 hr post UVB exposure using whole body bioluminescence instead of 48 hr post UVB using ear punches. SSL irradiation of SKH-1 mice (Charles River Laboratories, strain code 477) at a dose of 90 kJ/m2 UVA/6 kJ/m2 UVB was performed using UVA-340 bulbs (Q-Lab Corporation) as described before.
SKH-1 mouse skin [full thickness, 3 biological samples (i.e., 3 mice per treatment group)] treated either with vehicle (acetone) or 8 mM BMS-202 (all 3 times: 24 hr pre, 1 hr pre, and immediately post) and harvested 24 hr after acute SSL. First, total mRNA was prepared using the RNeasy Mini kit (Qiagen). Next, 100 ng was used for NanoString® nCounter® analysis (using the ‘Mouse Inflammation V2’ panel; probing 254 genes, NanoString® Technologies) comparing gene expression between treatment groups. Total mRNA was hybridized with the ‘Mouse Inflammation V2’ code set at 65° C. overnight. Further purification and binding of the hybridized probes to the optical cartridge was performed on the nCounter® Prep Station, and finally, the cartridge was scanned on the nCounter® Digital Analyzer. RCC files were then imported into nSolver4.0 software (NanoString® Technologies) and checked for data quality using default QC settings; all samples passed data quality QC. All samples were normalized using the geometric mean of the housekeeper genes. Expression ratios were calculated by dividing the mean values of all samples in one experimental group (UV+BMS-202) by the mean values of all samples in the reference group (UV+vehicle control). For data analysis, low count threshold value was 200. For heatmap depiction (FIGS. 3A and 3B, FIG. 5 and FIG. 6), a z-score for a specific gene indicates the number of SDs away from the mean of expression in the reference samples. For ‘pathway score analysis’ (FIGS. 4A, 4B, and 4C), each sample's gene expression profile was then condensed into a small set of pathway scores using nCounter® Advanced Analysis software (version 2.0.115). Pathway scores were fit using the first principal component of each gene set's data, oriented such that each pathway score has positive weights for at least half its genes.
Individual samples were run in triplicate format of biological replicates, and data analysis was performed using the nSolver analysis software (4.0). For p-value adjustment (Benjamini-Yekutieli False Discovery Rate; p-value threshold: 0.05), nCounter® Advanced Analysis software (version 2.0.115) was used. Nonparametric data analysis of murine experimentation was performed using the Mann-Whitney test. Differences between groups were considered significant at *p<0.05.

[1] = 8 mM topical + SSL vs SSL control, SKH-1 skin, 24 hr
[2] = 8 mM topical + SSL vs vehicle + SSL

COc1nc(OCc2cccc(-c3ccccc3)c2C)ccc1CNCCNC(C)=O [BMS-202]
Bcl6 fold change [1]: −12.8 fold
C1qa fold change [1]: −4.5 fold
C3 fold change [1]: −9.0 fold
C4a fold change [1]: −5.9 fold
C8b fold change [1]: 26.2 fold
C9 fold change [1]: 18.6 fold
Ccl2 fold change [1]: −5.3 fold
Ccl2 fold downregulation [1]: 5.3 fold
Ccl7 fold change [1]: −8.1 fold
Ccl7 fold downregulation [1]: 8.1 fold
Ccl8 fold change [1]: −5.0 fold
Ccl8 fold downregulation [1]: 5.0 fold
Ccr3 fold change [1]: 20.5 fold
Cdc42 fold change [1]: −4.6 fold
Cebpb fold change [1]: −8.3 fold
Cfl1 fold change [1]: −10.8 fold
Chi3l3 fold change [1]: 10.5 fold
Crp fold change [1]: 23.9 fold
Cxcl1 fold change [1]: −4.1 fold
Cxcl1 fold downregulation [1]: 4.1 fold
Cxcl3 fold change [1]: −9.1 fold
Cxcl5 fold change [1]: −11.6 fold
Cxcl5 fold downregulation [1]: 11.6 fold
Cxcl10 fold change [1]: 4.3 fold
Cysltr2 fold change [1]: 14.4 fold
Defa-rs1 fold change [1]: 51.0 fold
Fos fold change [1]: −4.1 fold
Fos fold downregulation [1]: 4.1 fold
Fxyd2 fold change [1]: −17.0 fold
Gnas fold change [1]: −11.5 fold
Gnas fold downregulation [1]: 11.5 fold
Gnb1 fold change [1]: −5.8 fold
Gnb1 fold downregulation [1]: 5.8 fold
Grb2 fold change [1]: −4.5 fold
H2-Eb1 fold change [1]: −14.2 fold
Hif1a fold change [1]: −9.6 fold
Hif1a fold downregulation [1]: 9.6 fold
II1r1 fold downregulation [1]: 5.5 fold
Ifi44 fold change [1]: 5.2 fold
Ifna1 fold change [1]: 89.3 fold
Ifnb1 fold change [1]: 16.4 fold
Ifng fold change [1]: 10.6 fold
Il1b fold downregulation [1]: 2.9 fold
Il1r1 fold change [1]: −5.5 fold
Il1rap fold downregulation [1]: 3.6 fold
Il6ra fold downregulation [1]: 3.4 fold
Il9 fold change [1]: 28.9 fold
Il10rb fold downregulation [1]: 3.2 fold
Il18 fold change [1]: −20.0 fold
Il18 fold downregulation [1]: 20.0 fold
Il21 fold change [1]: 50.1 fold
Il23a fold change [1]: 6.5 fold
Irf1 fold change [1]: −4.1 fold
Itgb2 fold change [1]: −8.2 fold
Jun fold change [1]: −5.9 fold
Jun fold downregulation [1]: 5.9 fold
Kng1 fold change [1]: 14.9 fold
Ly96 (coreceptor of Tlr4) fold downregulation [1]: 11.0 fold
Ly96 fold change [1]: −11.0 fold
Map2k1 fold change [1]: −5.8 fold
Map2k1 fold downregulation [1]: 5.8 fold
Map2k4 fold change [1]: −6.4 fold
Map2k4 fold downregulation [1]: 6.4 fold
Map3k1 fold change [1]: −4.5 fold
Map3k1 fold downregulation [1]: 4.5 fold
Map3k5 fold change [1]: −6.4 fold
Map3k5 fold downregulation [1]: 6.4 fold
Map3k7 fold downregulation [1]: 3.7 fold
Mapk1 fold downregulation [1]: 3.7 fold
Mapk3 fold change [1]: −6.3 fold
Mapk3 fold downregulation [1]: 6.3 fold
Mapk8 fold downregulation [1]: 3.1 fold
Mapk14 fold change [1]: −5.9 fold
Mapk14 fold downregulation [1]: 5.9 fold
Mapkapk2 fold change [1]: −5.2 fold
Mapkapk2 fold downregulation [1]: 5.1 fold
Mbl2 fold change [1]: 15.7 fold
Mef2c fold change [1]: −64.9 fold
Mmp3 fold downregulation [1]: 3.8 fold
Mmp9 fold change [1]: −8.2 fold
Mmp9 fold downregulation [1]: 8.2 fold
Mrc1 fold change [1]: −5.4 fold
Mx1 fold change [1]: 36.2 fold
Mx2 fold change [1]: 5.3 fold
Myc fold downregulation [1]: 3.3 fold
Myd88 fold downregulation [1]: 2.7 fold
Nf2el2 fold downregulation [1]: 3.5 fold
Nfatc3 fold change [1]: −4.1 fold
Nfatc3 fold downregulation [1]: 4.1 fold
Nfkb1 fold change [1]: −5.9 fold
Nfkb1 fold downregulation [1]: 5.9 fold
Nod2 fold change [1]: −5.1 fold
Nos2 fold change [1]: 6.1 fold
Nr3c1 fold change [1]: −4.9 fold
Oas1a fold change [1]: −4.3 fold
Pdgfa fold change [1]: −5.2 fold
Pdgfa fold downregulation [1]: 5.2 fold
Ppp1r12b fold change [1]: −12.1 fold
Ptgs1 fold downregulation [1]: 3.1 fold
Ptgs2 fold downregulation [1]: 1.7 fold
Rac1 fold change [1]: −7.3 fold
Rac1 fold downregulation [1]: 7.3 fold
Raf1 fold change [1]: −5.7 fold
Raf1 fold downregulation [1]: 5.7 fold
Rhoa fold change [1]: −5.9 fold
Shc1 fold change [1]: −7.4 fold
Stat1 fold downregulation [1]: 2.8 fold
Stat2 fold downregulation [1]: 2.5 fold
Stat3 fold change [1]: −7.4 fold
Stat3 fold downregulation [1]: 7.4 fold
Tcf4 fold change [1]: −4.4 fold
Tgfb1 fold change [1]: −13.3 fold
Tgfb1 fold downregulation [1]: 13.3 fold
Tgfb3 fold downregulation [1]: 2.7 fold
Tlr2 fold downregulation [1]: 2.4 fold
Tlr8 fold downregulation [1]: 3.4 fold
Tlr9 fold change [1]: 8.3 fold
Tnfsf14 fold change [1]: 4.8 fold
Trem2 fold change [1]: −4.5 fold
Tslp fold change [1]: 4.3 fold
Tyrobp fold change [1]: −4.9 fold
pathway score: immune response [2]: upregulated
pathway scores: activation of NFκB, innate immune response, chemokine activity, inflammatory response, angiogenesis [2]: downregulated

— US20260240826A1, “COMPOSITIONS FOR PD-L1 INHIBITION AND METHODS OF USE THEREOF” (ARIZONA BOARD OF REGENTS ON BEHALF OF THE UNIVERSITY OF …, priority 2023, published 2026)
